In patent US8198462B2, “Dendritic photoactive compound comprising oxime ester and method for preparing the same” (LG Chem, Ltd., priority 2007, dated 2012):

Assay: Solubility of the photoinitiator in frequently used organic solvents
Format: physicochemical
Settings: for Solubility in 3-MBA: solvent 3-methoxybutyl acetate (MBA); for Solubility in CH: solvent cyclohexanone (CH); for Solubility in DPM: solvent dipropylene glycol methyl ether (DPM); for Solubility in EEP: solvent ethyl-3-ethoxy propionate (EEP); for Solubility in PGMEA: solvent propylene glycol methyl ether acetate (PGMEA)
Method: For the comparison of the solubility of the compound that comprises oxime ester, in conjunction with Irgacure OXE-02 (Comparative Example 1) of Ciba Specialty Chemical, the solubilities of the compounds of Examples were measured in respects to the solvents that were frequently used, such as propylene glycol methyl ether acetate (PGMEA), dipropylene glycol methyl ether (DPM), 3-methoxybutyl acetate (MBA), ethyl-3-ethoxy propionate (EEP), and cyclohexanone (CH). The solubility was measured on the basis of how many grams of the photoinitiator were dissolved in 100 g of the solvent, and the results are described in the following Table 1.

Row | SMILES | Solubility in 3-MBA | Solubility in CH | Solubility in DPM | Solubility in EEP | Solubility in PGMEA
1 | CC(=O)O/N=C(\CC(c1ccc(C(C/C(=N\OC(C)=O)c2ccccc2)N(OC(C)=O)C(C)=O)cc1)N(OC(C)=O)C(C)=O)c1ccccc1 (stereo not drawn) [Example 1] | 50 or more grams in 100 g of the solvent | 100 or more grams in 100 g of the solvent | 50 or more grams in 100 g of the solvent | 50 or more grams in 100 g of the solvent | 100 or more grams in 100 g of the solvent
2 | CSc1ccc(C(C/C(=N\OC(C)=O)c2ccc(/C(CC(c3ccc(SC)cc3)N(OC(C)=O)C(C)=O)=N/OC(C)=O)cc2)N(OC(C)=O)C(C)=O)cc1 (stereo not drawn) [Example 2] | 50 or more grams in 100 g of the solvent | 100 or more grams in 100 g of the solvent | 50 or more grams in 100 g of the solvent | 50 or more grams in 100 g of the solvent | 100 or more grams in 100 g of the solvent
3 | CCn1c2ccc(/C(CC(c3cccs3)N(OC(C)=O)C(C)=O)=N/OC(C)=O)cc2c2cc(/C(CC(c3cccs3)N(OC(C)=O)C(C)=O)=N/OC(C)=O)ccc21 (stereo not drawn) [Example 4] | 30 grams in 100 g of the solvent | 100 or more grams in 100 g of the solvent | 25 grams in 100 g of the solvent | 30 grams in 100 g of the solvent | 100 or more grams in 100 g of the solvent
4 | CCn1c2ccc(/C(CC(c3ccccc3)N(OC(C)=O)C(C)=O)=N/OC(C)=O)cc2c2cc(/C(CC(c3ccccc3)N(OC(C)=O)C(C)=O)=N/OC(C)=O)ccc21 (stereo not drawn) [Example 3] | 50 or more grams in 100 g of the solvent | 100 or more grams in 100 g of the solvent | 50 or more grams in 100 g of the solvent | 50 or more grams in 100 g of the solvent | 100 or more grams in 100 g of the solvent
5 | CCn1c2ccc(C(=O)c3ccccc3C)cc2c2cc(/C(C)=N/OC(C)=O)ccc21 [Comparative Example 1, reference compound] | 10 grams in 100 g of the solvent | 40 grams in 100 g of the solvent | 5 grams in 100 g of the solvent | 10 grams in 100 g of the solvent | 12 grams in 100 g of the solvent
6 | CCn1c2ccc(/C(CC(c3ccc(SC)cc3)N(OC(C)=O)C(C)=O)=N/OC(C)=O)cc2c2cc(/C(CC(c3ccc(SC)cc3)N(OC(C)=O)C(C)=O)=N/OC(C)=O)ccc21 (stereo not drawn) [Example 5] | 50 or more grams in 100 g of the solvent | 100 or more grams in 100 g of the solvent | 50 or more grams in 100 g of the solvent | 50 or more grams in 100 g of the solvent | 100 or more grams in 100 g of the solvent
